Test results published in BindingDB's records for doi:10.7270/Q28G8J4C (Broad Institute, 2009).

Target: T1, POsterior Segregation (Caenorhabditis elegans, UniProt G5EF15)
T1 sequence (G5EF15 whole entry): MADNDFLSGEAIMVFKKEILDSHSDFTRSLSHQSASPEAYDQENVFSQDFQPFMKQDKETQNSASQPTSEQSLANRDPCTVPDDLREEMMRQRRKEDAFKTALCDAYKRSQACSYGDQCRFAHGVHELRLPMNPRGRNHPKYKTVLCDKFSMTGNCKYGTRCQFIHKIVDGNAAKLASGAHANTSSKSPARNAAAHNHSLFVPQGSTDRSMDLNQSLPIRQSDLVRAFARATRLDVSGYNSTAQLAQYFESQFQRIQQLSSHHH
Assay: inhibitors of POS-1/mex-3 RNA binding, dose response, biochemical, fluorescence polarization (AID 1964)

SMILES | EC50 [µM]
CSc1nnc(N2C(=O)C(=O)C(C(=O)c3ccco3)C2c2ccccc2)s1 (centres undefined) [3-(furan-2-carbonyl)-4-hydroxy-1-(5-methylsulfanyl-1,3,4-thiadiazol-2-yl)-2-phenyl-2H-pyrrol-5-one] | > 300
O=C1C(=O)N(c2ncccn2)C(c2cccs2)C1C(=O)c1ccco1 (centres undefined) [3-(furan-2-carbonyl)-4-hydroxy-1-pyrimidin-2-yl-2-thiophen-2-yl-2H-pyrrol-5-one] | 39.9
COc1ccc(C2C(C(=O)c3ccco3)C(=O)C(=O)N2c2nnc(C)s2)cc1 (centres undefined) [3-(furan-2-carbonyl)-4-hydroxy-2-(4-methoxyphenyl)-1-(5-methyl-1,3,4-thiadiazol-2-yl)-2H-pyrrol-5-one] | 109
Cc1ccc(C2C(C(=O)c3ccco3)C(=O)C(=O)N2c2nnc(C)s2)cc1 (centres undefined) [3-(furan-2-carbonyl)-4-hydroxy-2-(4-methylphenyl)-1-(5-methyl-1,3,4-thiadiazol-2-yl)-2H-pyrrol-5-one] | > 300
O=C1Nc2ccccc2C1=NNc1ccccc1 [3-(phenylhydrazo)-2-indolone] | 7.37
COc1ccc(N2C(=O)C(=Nc3ccccc3O)C(Cl)C2=O)cc1 (centres undefined) [3-Chloro-4-(2-hydroxy-phenylamino)-1-(4-methoxy-phenyl)-pyrrole-2,5-dione] | > 300
O=C1C(=Nc2ccccc2O)C(Cl)C(=O)N1c1ccccc1 (centres undefined) [3-Chloro-4-(2-hydroxy-phenylamino)-1-phenyl-pyrrole-2,5-dione] | > 300
O=c1c2ccccc2nc(N=NCc2ccc(O)cc2)n1O [3-Hydroxy-2-{N'-[1-(4-hydroxy-phenyl)-meth-(E)-ylidene]-hydrazino}-3H-quinazolin-4-one] | > 300
Cc1cc(CN=Nc2ccc([N+](=O)[O-])cn2)c(C)n1-c1cccc(C(=O)O)c1 [3-[2,5-dimethyl-3-[[(5-nitro-2-pyridinyl)hydrazinylidene]methyl]-1-pyrrolyl]benzoic acid] | > 300
O=NCc1cccn1-c1cccc(C(=O)O)c1 [3-[2-(hydroximinomethyl)pyrrol-1-yl]benzoic acid] | > 300
Cc1[nH]n(C(N)=S)c(=O)c1N=Nc1cccc(C(=O)O)c1 [3-[(1-carbamothioyl-3-methyl-5-oxo-4H-pyrazol-4-yl)diazenyl]benzoic acid] | 35.1
Oc1ccc(C=Nn2c(O)csc2=S)c(O)c1O [3-[[(E)-[2,3-bis(oxidanyl)-4-oxidanylidene-cyclohexa-2,5-dien-1-ylidene]methyl]amino]-2-sulfanylidene-1,3-thiazolidin-4-one] | 5.17
N#CC1C(=N)Oc2ccc3ccc(O)cc3c2C1c1ccsc1 (centres undefined) [3-amino-9-hydroxy-1-(3-thienyl)-1H-benzo[f]chromene-2-carbonitrile] | 76.1
CCCCOc1c(Br)cc(CN=O)cc1OCC [3-bromo-4-butoxy-5-ethoxy-benzaldoxime] | > 300
COc1ccccc1N1C(=O)C(=Nc2ccccc2O)C(Cl)C1=O (centres undefined) [3-chloranyl-4-[(2-hydroxyphenyl)amino]-1-(2-methoxyphenyl)pyrrole-2,5-dione] | 34.7
Cc1[nH]n(C(N)=S)c(=O)c1N=Nc1ccc(S(N)(=O)=O)cc1 [3-methyl-5-oxidanylidene-4-[(4-sulfamoylphenyl)diazenyl]-4H-pyrazole-1-carbothioamide] | 19.7
COc1cc(C2C3=C(CCCC3=O)OC(=N)C2C#N)cc(OC)c1OC(=O)N1CCOCC1 (centres undefined) [4-(2-amino-3-cyano-5-oxo-5,6,7,8-tetrahydro-4H-chromen-4-yl)-2,6-dimethoxyphenyl morpholine-4-carboxylate] | > 300
COc1cc(C2C3=C(CCCC3=O)OC(=N)C2C#N)ccc1OC(=O)N1CCOCC1 (centres undefined) [4-(2-amino-3-cyano-5-oxo-5,6,7,8-tetrahydro-4H-chromen-4-yl)-2-methoxyphenyl morpholine-4-carboxylate] | > 300
N#CC1C(=N)OC2=C(C(=O)CCC2)C1c1ccc(OC(=O)N2CCOCC2)cc1 (centres undefined) [4-(2-amino-3-cyano-5-oxo-5,6,7,8-tetrahydro-4H-chromen-4-yl)phenyl morpholine-4-carboxylate] | > 300
COc1cc(C2NC(=S)N=C(C)C2C(=O)OC(C)C)ccc1OC(C)C (centres undefined) [4-(3-methoxy-4-propan-2-yloxyphenyl)-6-methyl-2-sulfanylidene-3,4-dihydro-1H-pyrimidine-5-carboxylic acid propan-2-yl ester] | > 300
CC(=O)C1C(c2ccccc2)=NC(=O)NC1c1ccc(O)c(O)c1 (centres undefined) [4-[3,4-bis(oxidanyl)phenyl]-5-ethanoyl-6-phenyl-3,4-dihydro-1H-pyrimidin-2-one] | > 300
CC1(C)CC(=O)C2=C(C1)OC(=N)C(C#N)C2c1ccc(OC(=O)N2CCOCC2)cc1 (centres undefined) [4-morpholinecarboxylic acid [4-(2-amino-3-cyano-7,7-dimethyl-5-oxo-6,8-dihydro-4H-1-benzopyran-4-yl)phenyl] ester] | > 300
NC(=NNC=c1ccc(=C2C=CC(=O)C(C(=O)O)=C2)o1)N[N+](=O)[O-] [5-(5-{2-[amino(nitroimino)methyl]carbonohydrazonoyl}-2-furyl)-2-hydroxybenzoic acid] | 29.9
Cc1ncc(C=O)c(CNNC(=O)c2cc(Br)ccc2O)c1O [5-bromanyl-N'-[(Z)-[5-(hydroxymethyl)-2-methyl-3-oxidanylidene-pyridin-4-ylidene]methyl]-2-oxidanyl-benzohydrazide] | > 300
Cc1ccc(N/N=C2/C(=O)Nc3ccc(F)cc32)cc1 [5-fluoro-3-[2-(4-methylphenyl)hydrazono]indolin-2-one] | > 300

Next, values leading:

EC50 [µM] | SMILES
> 300 | Cc1nnc(N2C(=O)C(=O)C(C(=O)c3ccco3)C2c2cccc3ccccc23)s1 (centres undefined) [3-(furan-2-carbonyl)-4-hydroxy-1-(5-methyl-1,3,4-thiadiazol-2-yl)-2-naphthalen-1-yl-2H-pyrrol-5-one]
6.79 | CSc1ccc(C2C(C(=O)c3ccco3)C(=O)C(=O)N2c2nnc(SC)s2)cc1 (centres undefined) [3-(furan-2-carbonyl)-4-hydroxy-2-(4-methylsulfanylphenyl)-1-(5-methylsulfanyl-1,3,4-thiadiazol-2-yl)-2H-pyrrol-5-one]
89.4 | N#CC1C(=N)C2=C(N3CCCCC3)CCCC2C1(C#N)C#N (centres undefined) [3-Amino-4-piperidin-1-yl-5,6,7,7a-tetrahydro-indene-1,1,2-tricarbonitrile]
18.6 | O=[N+]([O-])c1cc([CH+][N-]n2c(O)csc2=S)ccc1Cl [3-[(4-chloranyl-3-nitro-phenyl)methylideneamino]-2-sulfanylidene-1,3-thiazolidin-4-one]
22 | O=C1C=C(NNC(=O)c2sc3ccccc3c2Cl)CCC1 [3-chloranyl-N-[(3-oxidanylidenecyclohexylidene)amino]-1-benzothiophene-2-carboxamide]
33.9 | CC(C)c1nnc(N2C(=O)C(=O)C(C(=O)c3cccs3)C2c2ccccc2)s1 (centres undefined) [3-hydroxy-1-(5-isopropyl-1,3,4-thiadiazol-2-yl)-5-phenyl-4-(2-thenoyl)-3-pyrrolin-2-one]
1.07 | O=C1CC(=O)c2c(O)cc(O)c(O)c2C1=O [4,5,7,8-tetrahydroxy-1,2-naphthoquinone]
176 | O=C(O)c1ccc(NN=CC2=C(N3CCOCC3)C(=Cc3ccccc3)CC2)cc1 [4-[2-[[(3Z)-2-(4-morpholinyl)-3-(phenylmethylene)-1-cyclopentenyl]methylidene]hydrazinyl]benzoic acid]
> 300 | Cc1ccc(-c2c(CCC(C)N=O)oc3ccc(Cl)cc23)o1 (centres undefined) [4-[5-chloro-3-(5-methyl-2-furanyl)-2-benzofuranyl]-2-butanone oxime]
17.8 | Cc1nnc(SC(=Cc2ccc(OCc3ccc(C(=O)O)cc3)cc2)C(=O)O)[nH]1 [4-[[4-[(E)-2-[(5-methyl-1H-1,2,4-triazol-3-yl)sulfanyl]-3-oxidanyl-3-oxidanylidene-prop-1-enyl]phenoxy]methyl]benzoic acid]
125 | COc1ccc(C(=O)Nc2nnc(CC(=O)NN=Cc3ccc(O)cc3O)s2)cc1 [4-methoxy-N-[5-[2-oxidanylidene-2-[2-[(E)-(2-oxidanyl-4-oxidanylidene-cyclohexa-2,5-dien-1-ylidene)methyl]hydrazinyl]ethyl]-1,3,4-thiadiazol-2-yl]benzamide]
> 300 | Cc1cc(CN=Nc2ccc([N+](=O)[O-])cn2)c(C)n1-c1ccc(C(=O)O)cc1 [4-{2,5-dimethyl-3-[2-(5-nitro-2-pyridinyl)carbonohydrazonoyl]-1H-pyrrol-1-yl}benzoic acid]
23.3 | Cc1sc2ncnc(N=NC(C)c3ccccn3)c2c1C (centres undefined) [5,6-dimethyl-N-(1-pyridin-2-ylethylideneamino)thieno[2,3-d]pyrimidin-4-amine]
14.7 | Fc1ccc(C2=Nc3ncnn3C(c3ccco3)C2)cc1 (centres undefined) [5-(4-fluorophenyl)-7-(2-furanyl)-1,7-dihydro-[1,2,4]triazolo[1,5-a]pyrimidine]
> 300 | c1ccc(C2=Nc3nnnn3C(c3cccs3)C2)cc1 (centres undefined) [5-Phenyl-7-thiophen-2-yl-4,7-dihydro-tetrazolo[1,5-a]pyrimidine]
56.8 | COc1cc(CN=Nc2[nH]c(=O)nnc2C)ccc1O [5-[2-[(E)-(3-methoxy-4-oxocyclohexa-2,5-dien-1-ylidene)methyl]hydrazinyl]-6-methyl-2H-1,2,4-triazin-3-one]
7.98 | COC1=CC(CN=Nc2[nH]c(=O)nnc2C)C=C([N+](=O)[O-])C1=O (centres undefined) [5-[[(E)-(3-methoxy-5-nitro-4-oxo-1-cyclohexa-2,5-dienylidene)methyl]hydrazo]-6-methyl-2H-1,2,4-triazin-3-one]
14 | O=C1N=c2ccc(Br)cc2=C1NNc1nnn[nH]1 [5-bromanyl-3-[2-(2H-1,2,3,4-tetrazol-5-yl)hydrazinyl]indol-2-one]
68.3 | Cc1cccc(NNC2=c3cc(Br)ccc3=NC2=O)c1 [5-bromo-3-[2-(3-methylphenyl)hydrazinyl]indol-2-one]
